In patent US12653191B2, “Active compound combinations” (Bayer Aktiengesellschaft, priority 2020, dated 2026):
Several values for one entry are separate records, joined by “and”; a condition that tells them apart may be missing. Equal values may be shown once. Read-outs that look alike come from different tables or passages of the source.

Key:
Type in all cases: cell-based
Alternaria alternata = test: in vitro-Test with fungal microorganisms, Method B (tables A13-A22)
Method in brief: (§1)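 Efficacy scale: 0% means growth equal to the untreated control, 100% means none detected. Compounds are dried from methanol with emulsifier before adding inoculated growth medium; incubation at 20° C., 85% relative humidity for 3 to 7 days precedes photometric inhibition readout.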

Cordana musae [1] = test: in vitro-Test with fungal microorganisms, Method B (tables E9-E16); settings: for Efficacy %: single substance
Method in brief: as §1

Parastagonospora nodorum = test: in vitro-Test with fungal microorganisms, Method B (tables H5-H8)
Method in brief: as §1

Botrytis cinerea [2] = test: in vitro-Test with fungal microorganisms, Method B (tables B15-B18)
Method in brief: as §1

Diaporthe citri [3] = test: in vitro-Test with fungal microorganisms, Method B (tables F12-F15)
Procedure: Example: In Vitro-Test with Fungal Microorganisms
Wells of 96-well microtiter plates are filled with 30 μl of a preparation of test compound or compound combination in methanol+emulsifier alkylaryl-polyglycol-ether. Thereafter, the solvent is evaporated in a hood. At the next step, 200 μl of liquid growth medium is given, that has been amended with an appropriate concentration of spores or mycelium suspension of the test fungus.
With the aid of a photometer, the extinction in all wells is measured at the wavelength of 600 nm.
The microtiter plates are incubated for 3 to 7 days at 20° C. and 85% relative humidity. After the incubation inhibition of growth is determined photometrically. Efficacy is calculated in relation to the untreated control, 0% efficacy means fungal growth as high as in untreated control while 100% efficacy means no fungal growth is measured.
The data in tables A1 to A12, B1 to B14, C1 to C10, D1 to D8, E1 to E8, F1 to F11, G1 to G4, H1 to H4 and I1 to I5 were collected according to Method A. The data in tables A13 to A22, B15 to B18, C11 to C20, E9 to E16, F12 to F15, G5 to G15, H5 to H8, I6 to I11 and J1 to J11 were collected according to Method B.

Cercospora beticola [4] = test: in vitro-Test with fungal microorganisms, Method B (tables C11-C20)
Method in brief: as §1

Colletotrichum coccodes = test: in vitro-Test with fungal microorganisms, Method B (tables J1-J11)
Method in brief: as §1

Fusarium culmorum [5] = test: in vitro-Test with fungal microorganisms, Method B (tables G5-G15)
Method in brief: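 Read photometrically at 600 nm after 3-7 days at 20° C and 85% relative humidity, Fusarium culmorum growth inhibition is expressed against untreated control. Wells hold solvent-evaporated compound (from methanol/emulsifier) overlaid with spore- or mycelium-amended growth medium.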

[6] = tested on: Ustilago segetum var. avenae; test: in vitro-Test with fungal microorganisms, Method B (tables I6-I11)
Method in brief: as §1

Botrytis cinerea [7] = test: in vitro-Test with fungal microorganisms, Method A (tables B1-B14); settings: Botrytis cinerea
Method in brief: (§2)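 First, compound in methanol with alkylaryl-polyglycol-ether was dried down in the plate. Next, spore or mycelium suspension in potato dextrose broth was added and extinction read at 620 nm. After 3-5 days at 20° C, 85% RH, reading was repeated and efficacy scored against untreated wells.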

Cercospora beticola [8] = test: in vitro-Test with fungal microorganisms, Method A (tables C1-C10); settings: Cercospora beticola, read-out: Efficacy %
Method in brief: as §2

[9] = tested on: Colletotrichum lindemuthianum; test: in vitro-Test with fungal microorganisms, Method A (tables D1-D8)
Method in brief: as §2

[10] = tested on: Ustilago segetum var. avenae; test: in vitro-Test with fungal microorganisms, Method A (tables I1-I5); settings: alone, read-out: Efficacy %
Method in brief: as §2

Cordana musae [11] = test: in vitro-Test with fungal microorganisms, Method A (tables E1-E8); settings: Neocordana musae, single substance, read-out: Efficacy %
Method in brief: as §2

Fusarium culmorum [12] = test: in vitro-Test with fungal microorganisms, Method A (tables G1-G4); settings: alone
Method in brief: as §2

Diaporthe citri [13] = test: in vitro-Test with fungal microorganisms, Method A (tables F1-F11); settings: Diaporthe citri, read-out: Efficacy
Method in brief: as §2

[14] = single active compound, 0.2 ppm

SMILES: Cc1nn(C)c(F)c1C(=O)Nc1ccccc1C(C)CC(C)C (stereo not drawn) [(2.017) penflufen, penflufen]
- Efficacy (Alternaria alternata; 0.2 ppm): 22%
- Efficacy (Alternaria alternata; 5 ppm): 72%
- Efficacy (Cordana musae [1]; single active, 0.04 ppm): 0%
- Efficacy (Cordana musae [1]; single active, 0.2 ppm): 0%
- Efficacy (Cordana musae [1]; single active, 1 ppm): 0%
- Efficacy (Parastagonospora nodorum; 0.04 ppm): 0%
- Efficacy (Parastagonospora nodorum; 0.2 ppm): 5%
- Efficacy % (Botrytis cinerea [2]; 0.04 ppm alone): 0%
- Efficacy % (Botrytis cinerea [2]; 5 ppm alone): 70%
- Efficacy (Diaporthe citri [3]; Table F15, 0.04 ppm alone): 0%
- Efficacy (Diaporthe citri [3]; Table F15, 0.2 ppm alone): 2%
- Efficacy (Diaporthe citri [3]; Table F15, 1 ppm alone): 0%
- Efficacy (Diaporthe citri [3]; Table F15, 5 ppm alone): 3%
- Efficacy % (Cercospora beticola [4]; single compound, 1 ppm): 0%
- Efficacy % (Colletotrichum coccodes; single active compound at 1 ppm): 0%
- Efficacy % (Colletotrichum coccodes; single active compound at 5 ppm): 27%
- Efficacy (Fusarium culmorum [5]; 0.04 ppm alone): 4%
- Efficacy (Fusarium culmorum [5]; [14]): 10% and 2%
- Efficacy (Fusarium culmorum [5]; single active compound, 1 ppm): 11%
- Efficacy (Fusarium culmorum [5]; single active compound, 5 ppm): 11% and 8%

SMILES: Cc1cccc(-n2nnn(C)c2=O)c1COc1ccn(-c2ccc(Cl)cc2)n1 [(3.030) metyltetraprole, metyltetraprole]
- Efficacy (Alternaria alternata; 0.008 ppm): 0%
- Efficacy (Alternaria alternata; 1 ppm): 87%
- Efficacy (Cordana musae [1]; single active, 0.008 ppm): 0%
- Efficacy (Cordana musae [1]; single active, 0.04 ppm): 0%
- Efficacy (Cordana musae [1]; single active, 0.2 ppm): 19%
- Efficacy (Cordana musae [1]; single active, 1 ppm): 70%
- Efficacy % ([6]; 0.2 ppm): 0%
- Efficacy (Parastagonospora nodorum; 0.04 ppm): 38%
- Efficacy (Parastagonospora nodorum; 1 ppm): 84%
- Efficacy % (Botrytis cinerea [2]; 0.008 ppm alone): 7%
- Efficacy % (Botrytis cinerea [2]; 0.04 ppm alone): 11%
- Efficacy % (Botrytis cinerea [2]; 0.2 ppm alone): 7%
- Efficacy % (Botrytis cinerea [2]; 1 ppm alone): 33%
- Efficacy (Diaporthe citri [3]; Table F14, 0.2 ppm alone): 86%
- Efficacy % (Cercospora beticola [4]; single compound, 0.04 ppm): 100%
- Efficacy % (Cercospora beticola [4]; single compound, 0.2 ppm): 100%
- Efficacy % (Colletotrichum coccodes; single active compound at 0.04 ppm): 0%
- Efficacy % (Colletotrichum coccodes; single active compound at 0.2 ppm): 1%
- Efficacy (Fusarium culmorum [5]; 0.2 ppm alone): 13%
- Efficacy (Fusarium culmorum [5]; single active compound, 0.008 ppm): 7% and 0%
- Efficacy (Fusarium culmorum [5]; single active compound, 0.04 ppm): 8% and 0%
- Efficacy (Fusarium culmorum [5]; [14]): 6% and 5%
- Efficacy (Fusarium culmorum [5]; single active compound, 1 ppm): 8% and 2%

SMILES: N#Cc1sc2c(=O)c3ccccc3c(=O)c=2sc1C#N [(5.010) dithianon, dithianon]
- inhibition of growth at 0.4 ppm (Alternaria alternata; Alternaria alternata, single compound, 0.4 ppm, read-out: Efficacy): 0%
- inhibition of growth at 2 ppm (Alternaria alternata; Alternaria alternata, single compound, 2 ppm, read-out: Efficacy): 32%
- inhibition of growth at 2 ppm (Cordana musae [1]; Neocordana musae, single active, 2 ppm, read-out: Efficacy): 95%
- Efficacy % (Cordana musae [1]; 0.08 ppm): 0%
- Efficacy % (Cordana musae [1]; 10 ppm): 100%
- inhibition of growth at 0.8 ppm (Botrytis cinerea [7]; read-out: Efficacy): 0%
- inhibition of growth at 4 ppm (Botrytis cinerea [7]; 4.0 ppm, read-out: Efficacy): 23%
- inhibition of growth at 20 ppm (Botrytis cinerea [7]; read-out: Efficacy): 100%
- inhibition of growth at 0.8 ppm (Botrytis cinerea [7]; alone, read-out: Efficacy %): 0%
- inhibition of growth at 20 ppm (Botrytis cinerea [7]; alone, read-out: Efficacy %): 99%
- inhibition of growth at 0.8 ppm (Cercospora beticola [8]; 0.8 ppm): 0%
- inhibition of growth at 4 ppm (Cercospora beticola [8]; 4.0 ppm alone): 100%
- inhibition of growth at 4 ppm (Cercospora beticola [8]; 4.0 ppm): 100%
- inhibition of growth at 20 ppm (Cercospora beticola [8]; 20.0 ppm alone): 99%
- inhibition of growth at 20 ppm (Cercospora beticola [8]; 20.0 ppm): 99%
- inhibition of growth at 0.08 ppm ([6]; 0.08 ppm, read-out: Efficacy %): 2%
- inhibition of growth at 0.4 ppm ([6]; 0.4 ppm, read-out: Efficacy %): 0%
- inhibition of growth at 2 ppm ([6]; 2 ppm, read-out: Efficacy %): 29%
- inhibition of growth at 0.08 ppm (Parastagonospora nodorum; Parastagonospora nodorum, 0.08 ppm, read-out: Efficacy): 12%
- inhibition of growth at 0.4 ppm (Parastagonospora nodorum; Parastagonospora nodorum, 0.4 ppm, read-out: Efficacy): 5%
- inhibition of growth at 2 ppm (Parastagonospora nodorum; Parastagonospora nodorum, 2 ppm, read-out: Efficacy): 96%
- Efficacy (Diaporthe citri [3]; Table F13, 0.4 ppm alone): 13%
- inhibition of growth at 0.8 ppm ([9]; Colletotrichum lindemuthianum, single active at 0.8 ppm, read-out: Efficacy %): 0%
- inhibition of growth at 4 ppm ([9]; Colletotrichum lindemuthianum, single active at 4.0 ppm, read-out: Efficacy %): 100%
- inhibition of growth at 20 ppm ([9]; Colletotrichum lindemuthianum, single active at 20.0 ppm, read-out: Efficacy %): 100%
- Efficacy % ([9]; single active at 0.8 ppm): 0%
- inhibition of growth at 0.08 ppm (Cercospora beticola [4]; Cercospora beticola, 0.08 ppm, read-out: Efficacy %): 0%
- inhibition of growth at 0.4 ppm (Cercospora beticola [4]; Cercospora beticola, 0.4 ppm, read-out: Efficacy %): 3%
- inhibition of growth at 2 ppm (Cercospora beticola [4]; Cercospora beticola, 2 ppm, read-out: Efficacy %): 100%
- inhibition of growth at 0.08 ppm (Colletotrichum coccodes; Colletotrichum coccodes, single active compound at 0.08 ppm, read-out: Efficacy %): 0%
- inhibition of growth at 0.4 ppm (Colletotrichum coccodes; Colletotrichum coccodes, single active compound at 0.4 ppm, read-out: Efficacy %): 11%
- inhibition of growth at 10 ppm (Colletotrichum coccodes; Colletotrichum coccodes, single active compound at 10 ppm, read-out: Efficacy %): 100%
- inhibition of growth at 0.8 ppm ([10]; 0.8 ppm): 12%
- inhibition of growth at 4 ppm ([10]; 4.0 ppm): 100%
- inhibition of growth at 20 ppm ([10]; 20.0 ppm): 99%
- inhibition of growth at 0.8 ppm (Cordana musae [11]; 0.8 ppm): 0%
- inhibition of growth at 4 ppm (Cordana musae [11]; 4.0 ppm): 100%
- Efficacy (Fusarium culmorum [12]; 20.0 ppm): 100%
- inhibition of growth at 4 ppm (Fusarium culmorum [12]; Fusarium culmorum, 4.0 ppm, read-out: Efficacy): 0%
- inhibition of growth at 0.8 ppm (Diaporthe citri [13]; Table F10, 0.8 ppm alone): 9%
- inhibition of growth at 4 ppm (Diaporthe citri [13]; Table F10, 4.0 ppm alone): 99%
- inhibition of growth at 20 ppm (Diaporthe citri [13]; Table F10, 20.0 ppm alone): 98%
- inhibition of growth at 0.8 ppm (Diaporthe citri [13]; applied alone, 0.8 ppm): 17%
- inhibition of growth at 20 ppm (Diaporthe citri [13]; applied alone, 20.0 ppm): 98%
- inhibition of growth at 0.08 ppm (Fusarium culmorum [5]; Fusarium culmorum, single active compound, 0.08 ppm, read-out: Efficacy): 4%

SMILES: COCC(=O)N(c1c(C)cccc1C)[C@H](C)C(=O)OC [(12.004) metalaxyl-M, metalaxyl-M (mefenoxam)]
- Efficacy (Alternaria alternata; 4 ppm): 10%
- Efficacy (Cordana musae [1]; single active, 0.8 ppm): 0%
- Efficacy (Cordana musae [1]; single active, 4 ppm): 0% and 9%
- Efficacy (Cordana musae [1]; single active, 20 ppm): 0% and 8%
- Efficacy % ([6]; 0.8 ppm, listed as (12.004) metalaxyl-m): 11%
- Efficacy % ([6]; 4 ppm): 8%
- Efficacy % ([6]; 20 ppm): 12%
- Efficacy (Parastagonospora nodorum; 0.8 ppm): 12%
- Efficacy (Parastagonospora nodorum; 4 ppm): 8%
- Efficacy (Parastagonospora nodorum; 20 ppm): 3%
- Efficacy % (Botrytis cinerea [2]; 0.8 ppm, alone): 5%
- Efficacy % (Botrytis cinerea [2]; 4 ppm alone): 3%
- Efficacy % (Botrytis cinerea [2]; 20 ppm alone): 4%
- Efficacy % (Botrytis cinerea [2]; 100 ppm alone): 13%
- Efficacy (Diaporthe citri [3]; Table F14, 0.8 ppm alone): 0%
- Efficacy (Diaporthe citri [3]; Table F14, 4 ppm alone): 0%
- Efficacy (Diaporthe citri [3]; Table F14, 20 ppm alone): 0%
- Efficacy % (Cercospora beticola [4]; 4 ppm): 10%
- Efficacy % (Cercospora beticola [4]; 20 ppm): 0%
- Efficacy % (Cercospora beticola [4]; single compound, 20 ppm): 0%
- Efficacy (Fusarium culmorum [5]; 0.8 ppm, alone): 0%
- Efficacy (Fusarium culmorum [5]; 4 ppm alone): 0%
- Efficacy (Fusarium culmorum [5]; single active compound, 100 ppm): 22% and 23%
